Reference: US20100021918A1, “METHOD FOR ASSAYING ACTION OF ANTITUMOR AGENT USING SPLICING DEFECTS AS INDEX” (Eisai R&D Management Co., Ltd., priority 2007, published 2010)

Tested on: human colon carcinoma cell strain WiDr
Assay: Microarray analysis (2), reviewed conditions, intron expression, Table 3
Type: cell-based
Conditions: treated vs control; for Fold Change (change in expression level of intron probe set): WiDr cells
Experimental: WiDr cells were first suspended in RPMI1640 medium (containing 10% FBS, penicillin, and streptomycin) and seeded in a 10 cm dish (2×10^6 cells/dish). After an overnight culture in an incubator with 5% carbon dioxide gas at 37° C., the medium was changed with medium containing 14 nM of (8E,12E,14E)-7-((4-cycloheptylpiperazin-1-yl)carbonyl)oxy-3,6,16,21-tetrahydroxy-6,10,12,16,20-pentamethyl-18,19-epoxytricosa-8,12,14-trien-11-olide or containing vehicle alone. After cultured for additional six hours, TRI reagent (SIGMA) were added to the cells and the cells were harvested. RNA was purified in accordance with the protocol of TRI reagent, followed by further purification with RNeasy (QIAGEN). Absorbance at 260 nm was measured to quantify an amount of RNA. This experiment was repeated three times and RNA samples (n=3) were prepared.
Ribosomal RNA was removed from 1 μg of each total RNA of control cells (n=3) and cells with the treatment (n=3) by using RiboMinus Human/Mouse Transcriptome Isolation Kit (Invitrogen). Single stranded cDNA synthesis, double stranded cDNA synthesis, cRNA synthesis, second single stranded cDNA synthesis, cDNA fragmentation, and cDNA labeling in order were carried out for the total RNA from which ribosomal RNA was removed, by using GeneChip Whole Transcript Sense Target Labeling and Control Reagents (Affymetrix) to make a cDNA probe. The cDNA probe was used for hybridization with Human Exon 1.0 ST Array (Affymetrix). The array was washed and stained, and luminescence intensity was measured by a scanner.
Analysis conditions were reviewed in the data used in Example 3. Genes containing increased introns upon treatment with (8E,12E,14E)-7-((4-cycloheptylpiperazin-1-yl)carbonyl)oxy-3,6,16,21-tetrahydroxy-6,10,12,16,20-pentamethyl-18,19-epoxytricosa-8,12,14-trien-11-olide were identified.
In order to consider the analysis conditions, variations in the data from the samples with identical conditions were studied. […] It turned out that, by analyzing under conditions where the expression level was more than 100 and change in the expression level was more than five times, a probe set with increased expression can be extracted.
Probe sets showing that the normalized change in the level expression of the probe set in the group with the treatment was more than 5 times; the expression level of the probe set and the gene in the group with the treatment were more than 100; and probe set annotation was “extended, full, free”, were picked out. Welch's t-test was conducted with the probe sets extracted for the treated group and the control group to determine a p and q value. A gene containing the probe sets with the q value of less than 5% was determined as a candidate gene with increased expression level of the intron regions (Table 3).
In Table 3, for each gene evaluated, gene name (Gene Name), abbreviated name (Gene Symbol), accession number (Accession), alias name (Synonym), transcription cluster number in Human Exon 1.0 ST Array (Human Exon 1.0 ST Array Transcript Cluster ID), chromosome number (Chromosome), type of strand (Strand), start region (Start), stop region (Stop), and change in expression level (Fold Change) were respectively shown.

For CCC(O)C(C)C1OC1CC(C)(O)/C=C/C=C(\C)C1OC(=O)CC(O)CCC(C)(O)C(OC(=O)N2CCN(C3CCCCCC3)CC2)/C=C/C1C (stereo not drawn) [E7107, (8E,12E,14E)-7-((4-cycloheptylpiperazin-1-yl)carbonyl)oxy-3,6,16,21-tetrahydroxy-6,10,12,16,20-pentamethyl-18,19-epoxytricosa-8,12,14-trien-11-olide], the “Fold Change” value (gene AMD1, intron expression) was 7.90, the “Fold Change” value (gene ANLN, intron expression) was 7.90 and the “Fold Change” value (gene ANTXR2, intron expression) was 7.51. For the same molecule, the “Fold Change” value (gene API5, intron expression) was 7.77, the “Fold Change” value (gene ATAD2, intron expression) was 7.69 and the “Fold Change” value (gene ATN1, change in expression level) was 14.70. For the same molecule, the “Fold Change” value (gene AZIN1, intron expression) was 7.51, the “Fold Change” value (gene BAT1 // ATP6V1G2, intron expression) was 7.87 and the “Fold Change (change in expression level of intron probe set)” value (gene BAZ1B, transcript cluster 3056044) was 5.01. The “Fold Change” value (gene BCL7B, intron expression) was 7.82, the “Fold Change” value (gene BIRC6, change in expression level) was 15.96 and the “Fold Change” value (gene BNIP2, change in expression level) was 15.96. The “Fold Change (change in expression level of intron probe set)” value (gene BTF3L4, transcript cluster 2336271) was 5.01, the “Fold Change” value (gene C1orf160, intron expression) was 7.69 and the “Fold Change” value (gene C4orf30, intron expression) was 7.53. The “Fold Change” value (gene C10orf119, intron expression) was 7.55, the “Fold Change” value (gene C11orf57, intron expression) was 7.54 and the “Fold Change” value (gene C12orf44, intron expression) was 7.51. The “Fold Change” value (gene C15orf42, change in expression level) was 26.27, the “Fold Change (change in expression level of intron probe set)” value (gene CDCA5, transcript cluster 3377423) was 5.02 and the “Fold Change” value (gene CENTD1, intron expression) was 7.60. For the same molecule, the “Fold Change” value (gene CERK, intron expression) was 7.52, the “Fold Change” value (gene CGI-09, change in expression level) was 16.01 and the “Fold Change” value (gene CHCHD3, intron expression) was 7.75. For the same molecule, the “Fold Change” value (gene CLK3, intron expression) was 7.91, the “Fold Change” value (gene CRSP6, intron expression) was 7.49 and the “Fold Change” value (gene CSNK2A1 // CSNK2A1P, intron expression) was 7.87. For the same molecule, the “Fold Change” value (gene DDX17, change in expression level) was 15.42, the “Fold Change” value (gene DDX18 // WNT8B, intron expression) was 7.70 and the “Fold Change” value (gene DDX23, change in expression level) was 15.78. The “Fold Change” value (gene DEDD, intron expression) was 7.89, the “Fold Change” value (gene DPH1 // OVCA2, intron expression) was 7.64 and the “Fold Change” value (gene EEF1A1, intron expression) was 7.70. The “Fold Change” value (gene EEF1B2, intron expression) was 7.78, the “Fold Change” value (gene EGFR, intron expression) was 7.77 and the “Fold Change (change in expression level of intron probe set)” value (gene EIF3S1, transcript cluster 3591963) was 5.02. The “Fold Change” value (gene EIF4G2, intron expression) was 7.60, the “Fold Change” value (gene FBXL11, intron expression) was 7.57 and the “Fold Change (change in expression level of intron probe set)” value (gene FBXO28, transcript cluster 2382336) was 5.02. For the same molecule, the “Fold Change” value (gene FDFT1, intron expression) was 7.90, the “Fold Change” value (gene FEN1, change in expression level) was 14.75 and the “Fold Change” value (gene FOXM1, intron expression) was 7.52. For the same molecule, the “Fold Change” value (gene GDI1, intron expression) was 7.73, the “Fold Change” value (gene GTF2H1, intron expression) was 7.62 and the “Fold Change” value (gene GTF3C2, intron expression) was 7.63. For the same molecule, the “Fold Change” value (gene GTPBP4, intron expression) was 7.79, the “Fold Change” value (gene HIRA, intron expression) was 7.82 and the “Fold Change” value (gene HSP90AA1 // HSP90AA2 // HSP90AA6P, intron expression) was 7.53. The “Fold Change (change in expression level of intron probe set)” value (gene IDH3B, transcript cluster 3895075) was 5.01, the “Fold Change” value (gene ILF3, intron expression) was 7.68 and the “Fold Change” value (gene IRS2, intron expression) was 7.68. The “Fold Change” value (gene ITGB4BP, intron expression) was 7.55, the “Fold Change” value (gene ITGB6, intron expression) was 7.88 and the “Fold Change” value (gene JOSD3 // SNORA25 // SNORA32 // SNORA18, intron expression) was 7.81. For the same molecule, the “Fold Change” value (gene KCTD10, intron expression) was 7.48, the “Fold Change” value (gene KIAA0174, change in expression level) was 14.78 and the “Fold Change” value (gene KIAA1967, intron expression) was 7.49. The “Fold Change” value (gene KITLG, intron expression) was 7.58, the “Fold Change” value (gene KLHL18, change in expression level) was 15.00 and the “Fold Change” value (gene MAP2K3, intron expression) was 7.70. For the same molecule, the “Fold Change” value (gene MAP3K11, intron expression) was 7.77, the “Fold Change” value (gene MKL1, intron expression) was 7.93 and the “Fold Change (change in expression level of intron probe set)” value (gene MLL5, transcript cluster 3017547) was 5.02. For the same molecule, the “Fold Change” value (gene MRPL17, intron expression) was 7.62, the “Fold Change” value (gene MTF2, intron expression) was 7.63 and the “Fold Change” value (gene MYST2, intron expression) was 7.60. For the same molecule, the “Fold Change” value (gene NDUFA5, intron expression) was 7.48, the “Fold Change” value (gene NONO, intron expression) was 7.64 and the “Fold Change” value (gene NOP5/NOP58, intron expression) was 7.73. The “Fold Change” value (gene PAK1IP1 // C20orf7, change in expression level) was 15.04, the “Fold Change” value (gene PELI1, change in expression level) was 27.36 and the “Fold Change” value (gene PEX5, intron expression) was 7.53. The “Fold Change” value (gene PHF12, intron expression) was 7.73, the “Fold Change (change in expression level of intron probe set)” value (gene PIK4CB // RFX5, transcript cluster 2434925) was 5.03 and the “Fold Change (change in expression level of intron probe set)” value (gene POLR3O, transcript cluster 2432647) was 5.01. The “Fold Change” value (gene POMZP3, intron expression) was 7.56, the “Fold Change” value (gene PPP6C, intron expression) was 7.91 and the “Fold Change” value (gene PPRC1, intron expression) was 7.86. For the same molecule, the “Fold Change” value (gene PRPF40A, intron expression) was 7.89, the “Fold Change” value (gene RBM5, intron expression) was 7.69 and the “Fold Change” value (gene RPS6KB1, intron expression) was 7.73. For the same molecule, the “Fold Change” value (gene SAFB2, intron expression) was 7.64, the “Fold Change” value (gene SAPS3, change in expression level) was 15.25 and the “Fold Change” value (gene SDCCAG3 // SNAPC4, intron expression) was 7.49. The “Fold Change (change in expression level of intron probe set)” value (gene SHB // CKAP2 // MCART1, transcript cluster 3205659) was 5.00, the “Fold Change” value (gene SIN3A, intron expression) was 7.60 and the “Fold Change” value (gene SMAD5, intron expression) was 7.77. For the same molecule, the “Fold Change” value (gene SNIP1, intron expression) was 7.72, the “Fold Change” value (gene SNRP70, intron expression) was 7.52 and the “Fold Change” value (gene SPOP, intron expression) was 7.71. The “Fold Change” value (gene SPRED2, change in expression level) was 15.03, the “Fold Change (change in expression level of intron probe set)” value (gene SPTLC2, transcript cluster 3573152) was 5.02 and the “Fold Change” value (gene STARD7, intron expression) was 7.65. For the same molecule, the “Fold Change” value (gene STIP1, intron expression) was 7.71, the “Fold Change” value (gene SUPV3L1, change in expression level) was 14.99 and the “Fold Change” value (gene TBC1D10B, intron expression) was 7.74. For the same molecule, the “Fold Change” value (gene TCP1, intron expression) was 7.92, the “Fold Change” value (gene THRAP1, intron expression) was 7.84 and the “Fold Change” value (gene TMEM2, intron expression) was 7.52. The “Fold Change” value (gene TOP1, intron expression) was 7.93, the “Fold Change” value (gene TXNDC9 // LYG2, intron expression) was 7.69 and the “Fold Change” value (gene UBE2J1, intron expression) was 7.66. For the same molecule, the “Fold Change” value (gene USP36, intron expression) was 7.92, the “Fold Change” value (gene VAPA, intron expression) was 7.56 and the “Fold Change” value (gene WAC, intron expression) was 7.92. For the same molecule, the “Fold Change” value (gene WDR3, intron expression) was 7.63, the “Fold Change” value (gene YIPF3 // C6orf154, intron expression) was 7.61 and the “Fold Change” value (gene YME1L1, intron expression) was 7.84. The “Fold Change” value (gene YTHDF1, intron expression) was 7.83, the “Fold Change” value (gene ZNF148, intron expression) was 7.69 and the “Fold Change” value (gene ZNF473, intron expression) was 7.87.
